Usually inhibition stands for the drop in the measured response relative to a control, in per cent.

What all share (experiment): serine hydrolase off-target inhibition in mouse brain, late-stage follow-up, selectivity assay for DAGLb inhibitor project, biochemical, gel-based competitive ABPP, mouse brain membrane, set 1 (AID 602311)
Experiment [1] relates to APEH. As to conditions: gel-based competitive ABPP fluorescence, at 10 µM, active compounds read high.
Experiment [2] has as its system FAAH. The note with it: gel-based competitive ABPP fluorescence, at 10 µM, active compounds read high.
In experiment [3] the test system is LYPLA2. As to conditions: gel-based competitive ABPP fluorescence, at 10 µM, active compounds read high.
Experiment [4] relates to KIAA1363. The note with it: gel-based competitive ABPP fluorescence, at 10 µM, active compounds read high.
Experiment [5] has as its system MAGL. As to conditions: gel-based competitive ABPP fluorescence, at 10 µM, active compounds read high.
The target of experiment [6] is Monoacylglycerol lipase ABHD6 (Mus musculus) (UniProt Q8R2Y0). The note with it: gel-based competitive ABPP fluorescence, at 10 µM, active compounds read high.
Sequence of Monoacylglycerol lipase ABHD6 (Mus musculus) (Q8R2Y0 whole entry, looked up): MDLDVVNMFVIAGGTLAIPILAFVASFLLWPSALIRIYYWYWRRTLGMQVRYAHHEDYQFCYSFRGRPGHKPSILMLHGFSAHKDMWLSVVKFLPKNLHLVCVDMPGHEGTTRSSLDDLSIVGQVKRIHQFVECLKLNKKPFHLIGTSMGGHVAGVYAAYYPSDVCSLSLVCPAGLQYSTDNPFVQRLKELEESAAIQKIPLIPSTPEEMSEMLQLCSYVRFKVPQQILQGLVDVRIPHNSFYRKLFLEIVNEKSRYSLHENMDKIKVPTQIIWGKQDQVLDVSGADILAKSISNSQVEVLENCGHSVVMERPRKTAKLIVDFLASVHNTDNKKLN
Experiment [7] deals with Acyl-protein thioesterase 1 (Mus musculus) (UniProt P97823). As to conditions: gel-based competitive ABPP fluorescence, LYPLA1, at 10 µM, active compounds read high.
Sequence of Acyl-protein thioesterase 1 (Mus musculus) (P97823 whole entry, looked up): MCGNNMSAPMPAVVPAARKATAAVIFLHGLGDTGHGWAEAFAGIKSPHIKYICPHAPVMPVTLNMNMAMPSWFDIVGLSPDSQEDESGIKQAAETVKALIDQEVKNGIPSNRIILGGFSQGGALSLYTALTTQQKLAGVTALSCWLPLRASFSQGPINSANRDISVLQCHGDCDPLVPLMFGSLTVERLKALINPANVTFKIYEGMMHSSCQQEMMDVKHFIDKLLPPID
The subject of experiment [8] is ABHD12. As to conditions: gel-based competitive ABPP fluorescence, at 10 µM, active compounds read high.

The source made the active and inactive calls. The rule behind the calls is not given here.

As for `O=C(N1CCCCC1Cc1ccccc1)n1cc(-c2ccc(-c3ccccc3)cc2)nn1` (stereo unspecified), the inhibition in experiment [1] is 0% (inactive); in experiment [2], 0% (inactive); in experiment [3] it was 0% (inactive); in experiment [4] it was 0% (inactive); in experiment [5] it was 0% (inactive); in experiment [6] it was 95%. Besides, the inhibition in experiment [7] and in experiment [8] was 0% (inactive) throughout.

As for `CC(C)(C)OC(=O)NCCCCCN(CCc1ccccc1)C(=O)n1cc(-c2ccc(OC(F)(F)F)cc2)nn1`, the inhibition was 0% (inactive) in experiment [1]; 0% (inactive) in experiment [2]; 0% (inactive) in experiment [3]; 0% (inactive) in experiment [4]; 10% (inactive) in experiment [5]; 95% in experiment [6]. The inhibition in experiment [7] and in experiment [8] was 0% (inactive) in each case.

Values taken from PubChem BioAssay AID602311 (The Scripps Research Institute Molecular Screening Center, 2012).
